Biological target: human ALK5 (Homo sapiens (Human), UniProt P36897)
Test: ADP-GLO Kinases assay (ALK5 enzymatic activity)
Type: biochemical
Conditions: purified recombinant human ALK5 2.6 nM, TGFβ1 peptide substrate, 25° C., 150 min incubation, ADP-Glo detection
Protocol: The enzymatic activity of compounds of the present invention was monitored measuring the formation of ADP using the ADP-GLO Kinases assay. Following the incubation of the purified enzyme, a substrate and ATP, the produced ADP was converted into ATP, which in turn was converted into light by Ultra-Glo Luciferase. The luminescent signal positively correlated with ADP amount and kinase activity. Briefly, the kinase reaction was performed by incubating 2.6 nM of the purified, commercially available human ALK5 (recombinant TGF β1 N-term GST-tagged, 80-end), a final concentration of TGFβ1 peptide 94.5 μM (Promega, T36-58) and ultra-pure ATP (Promega V915B). The ATP concentration was set at the Km value (concentration of substrate which permits the enzyme to achieve half maximal velocity (Vmax)) of ALK5 (5 μM). All reactions/incubations were performed at 25° C. Compound and ALK5 kinase were mixed and incubated for 15 mins. Reactions were initiated by addition of ATP at a final concentration in the assay of 0.83 μM. After an incubation of 150 min, the reaction was stopped, and ADP production detected with ADP-Glo kit according to manufacturer's indications. The assay was performed in 384-well format and was validated using a selection of reference compounds that was tested in 11 point concentration-response curve.

human ALK5, sequence (P36897 80-503 limits assumed): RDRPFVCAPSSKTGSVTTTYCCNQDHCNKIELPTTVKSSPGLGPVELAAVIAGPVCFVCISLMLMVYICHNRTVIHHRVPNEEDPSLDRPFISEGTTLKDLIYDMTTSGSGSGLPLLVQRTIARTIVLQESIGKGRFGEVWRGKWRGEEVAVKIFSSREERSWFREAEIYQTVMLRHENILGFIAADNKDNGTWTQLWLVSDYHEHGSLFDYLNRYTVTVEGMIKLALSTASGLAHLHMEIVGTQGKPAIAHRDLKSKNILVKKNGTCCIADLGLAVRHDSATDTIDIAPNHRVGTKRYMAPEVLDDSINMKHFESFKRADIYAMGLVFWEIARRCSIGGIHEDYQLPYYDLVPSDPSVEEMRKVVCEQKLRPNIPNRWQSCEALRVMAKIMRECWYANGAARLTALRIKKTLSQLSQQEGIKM

Row | SMILES | IC50 [nM]
1 | Cn1ccc(-c2nc3n(c2-c2ccc4ncnn4c2)CCN3)n1 [Example 8, 6-(6-(1-Methyl-1H-pyrazol-3-yl)-2,3-dihydro-1H-imidazo[1,2-a]imidazol-5-yl)-[1,2,4]triazolo[1,5-a]pyridine] | 5 to 10
2 | Cc1cccc(-c2nc3n(c2-c2cccc4ncsc24)CCN3)n1 [Example 15] | 5 to 10
3 | CCN1CCn2c1nc(-c1cccc(C)n1)c2-c1ccc2ncnn2c1 [Example 22, 6-(1-Ethyl-6-(6-methylpyridin-2-yl)-2,3-dihydro-1H-imidazo[1,2-a]imidazol-5-yl)-[1,2,4]triazolo[1,5-a]pyridine] | < 1
4 | Cc1cccc(-c2nc3n(c2-c2ccc4snnc4c2)CCN3)n1 [Example 30, 5-(6-(6-Methylpyridin-2-yl)-2,3-dihydro-1H-imidazo[1,2-a]imidazol-5-yl)benzo[d][1,2,3] thiadiazole] | 1 to 5
5 | CCN1CCn2c1nc(-c1cccc(C)n1)c2-c1ccc2ncsc2c1 [Example 33, 6-[1-Ethyl-6-(6-methylpyridin-2-yl)-1H,2H,3H-imidazo[1,2-a][1,3]diazol-5-yl]-1,3-benzothiazole] | < 1
6 | Cc1cccc(-c2nc3n(c2-c2ccnc4[nH]ccc24)CCN3)n1 [Example 35, 4-(6-(6-Methylpyridin-2-yl)-2,3-dihydro-1H-imidazo[1,2-a]imidazol-5-yl)-1H-pyrrolo[2,3-b]pyridine] | 1 to 5
7 | Cc1cccc(-c2nc3n(c2-c2ccc(F)c(N)c2)CCN3)n1 [Example 43, 2-Fluoro-5-(6-(6-methylpyridin-2-yl)-2,3-dihydro-1H-imidazo[1,2-a]imidazol-5-yl) aniline] | 1 to 5
8 | Cc1cccc(-c2nc3n(c2-c2ccc(O)cc2)CCN3)n1 [Example 55, 4-[6-(6-Methylpyridin-2-yl)-1H,2H,3H-imidazo[1,2-a][1,3]diazol-5-yl]phenol] | 1 to 5
9 | COc1cccc(-c2nc3n(c2-c2ccc4ncsc4c2)CCN3)n1 [Example 57, 6-[6-(6-Methoxypyridin-2-yl)-1H,2H,3H-imidazo[1,2-a][1,3]diazol-5-yl]-1,3-benzothiazole] | < 1

Next, values leading:

Row | IC50 [nM] | SMILES
10 | < 1 | Cc1csc(-c2nc3n(c2-c2cc4cnccc4s2)CCN3)n1 [Example 7, 2-(6-(4-Methylthiazol-2-yl)-2,3-dihydro-1H-imidazo[1,2-a]imidazol-5-yl)thieno[3,2-c]pyridine]
11 | 1 to 5 | Cn1ccc(-c2nc3n(c2-c2cc4cnccc4s2)CCN3)n1 [Example 9, 2-(6-(1-Methyl-1H-pyrazol-3-yl)-2,3-dihydro-1H-imidazo[1,2-a]imidazol-5-yl)thieno[3,2-c]pyridine]
12 | 1 to 5 | CCOC(=O)CC1Cn2c(nc(-c3cccc(C)n3)c2-c2cc3cnccc3s2)N1 (stereo not shown) [Example 20, Ethyl 2-[6-(6-methylpyridin-2-yl)-5-{thieno[3,2-c]pyridin-2-yl}-1H,2H,3H-imidazo[1,2-a][1,3]diazol-2-yl] acetate]
13 | 1 to 5 | Cc1cccc(-c2nc3n(c2-c2cc4cnccc4s2)CC(CC(=O)O)N3)n1 (stereo not shown) [Example 21, 2-[6-(6-Methylpyridin-2-yl)-5-{thieno[3,2-c]pyridin-2-yl}-1H,2H,3H-imidazo[1,2-a][1,3]diazol-2-yl]acetic acid]
14 | 1 to 5 | CCOC(=O)C1Cn2c(nc(-c3cccc(C)n3)c2-c2ccc3ncnn3c2)N1 (stereo not shown) [Example 26, Ethyl 6-(6-methylpyridin-2-yl)-5-{[1,2,4]triazolo[1,5-a]pyridin-6-yl}-1H,2H,3H-imidazo[1,2-a][1,3]diazole-2-carboxylate]
15 | 1 to 5 | Cc1cccc(-c2nc3n(c2-c2cc4cnccc4s2)CC(C(=O)N(C)C)N3)n1 (stereo not shown) [Example 29, N,N-Dimethyl-6-(6-methylpyridin-2-yl)-5-{thieno[3,2-c]pyridin-2-yl}-1H,2H,3H-imidazo[1,2-a][1,3]diazole-2-carboxamide]
16 | < 1 | Cc1cccc(-c2nc3n(c2-c2ccc4nnsc4c2)CCN3)n1 [Example 31, 6-(6-(6-Methylpyridin-2-yl)-2,3-dihydro-1H-imidazo[1,2-a]imidazol-5-yl)benzo[d][1,2,3] thiadiazole]
17 | 1 to 5 | CCN1CCn2c1nc(-c1cccc(C)n1)c2-c1cc2cnccc2s1 [Example 42, 2-(1-Ethyl-5-{thieno[3,2-c]pyridin-2-yl}-1H,2H,3H-imidazo[1,2-a] [1,3]diazol-6-yl)-6-methylpyridine]
18 | 1 to 5 | Cc1cccc(-c2nc3n(c2-c2ccc4nc(N)sc4c2)CCN3)n1 [Example 48, 6-(6-(6-Methylpyridin-2-yl)-2,3-dihydro-1H-imidazo[1,2-a]imidazol-5-yl)benzo[d] thiazol-2-amine]
19 | 5 to 10 | Cc1cccc(-c2nc3n(c2-c2ccnc(N)c2)CCN3)n1 [Example 56, 4-[6-(6-Methylpyridin-2-yl)-1H,2H,3H-imidazo[1,2-a][1,3]diazol-5-yl]pyridin-2-amine]
